These results are taken from ChEMBL document CHEMBL3400088, “Synthesis and in vitro evaluation of novel 8-aminoquinoline-pyrazolopyrimidine hybrids as potent antimalarial agents” (Bioorg Med Chem Lett, 2015).

Structures are written as SMILES.

Holding throughout (type): functional, organism-based
The test system of assay [1] is Plasmodium falciparum. Nature of the assay: Antimalarial activity against drug-sensitive Plasmodium falciparum NF54 by SYBR green-based assay.
Assay [2] deals with Plasmodium falciparum. Nature of the assay: Antimalarial activity against multidrug-resistant Plasmodium falciparum W2 by SYBR green-based assay.
The subject of assay [3] is Plasmodium falciparum. Nature of the assay: Antimalarial activity against multidrug-resistant Plasmodium falciparum K1 by SYBR green-based assay.

For orientation: IC50 means the point on the concentration scale where inhibition reaches its midpoint. A lower IC50 goes with inhibition by little substance. `C[C@@H]1CC[C@H]2[C@@H](C)C(=O)O[C@@H]3O[C@@]4(C)CC[C@@H]1[C@]32OO4` [ARTEMISININ] came in with an IC50 in assay [1] of 0.007 µM.
Regarding `COc1cc(C)c2c(Oc3cccc(C(F)(F)F)c3)c(OC)cc(NC(C)CCCN)c2n1` (stereo not given) [TAFENOQUINE], the IC50 in assay [2] was found to be 0.217 µM. In other words, the sub-micromolar range.
In the case of `c1cnc2c(Nc3ccnc4ncnn34)cccc2c1`, the IC50 is 0.84 µM in assay [3] and 1.4 µM in assay [1].
For `Fc1cc(Nc2ccnc3ccnn23)c2ncccc2c1` the same measures were 0.0039 µM and 0.0039 µM.
For `c1cnc2c(Oc3ccnc4ccnn34)cccc2c1` the same measures were > 2 µM and > 2 µM.
Taken in the same sequence, the figures for `N#Cc1cnn2c(Nc3cccc4cccnc34)ccnc12` were 0.051 µM and 0.071 µM.
As for `c1cc(Nc2ccnc3ccnn23)c2ccncc2c1`, the IC50 in assay [3] worked out at 1.6 µM; in assay [1], 1.2 µM.
Taken in the same sequence, the figures for `Cc1nccc(Nc2cccc3cccnc23)n1` were > 0.5 µM and > 0.5 µM.
Taken in the same sequence, the figures for `FC(F)(F)c1cc(Nc2ccnc3ccnn23)c2ncccc2c1` were 0.018 µM and 0.042 µM.
Taken in the same sequence, the figures for `c1cnc2c(Nc3ccnc4ccnn34)cccc2c1` were 0.0078 µM and 0.0053 µM.
In the case of `Cc1cc(Nc2ccnc3ccnn23)c2ncccc2c1`, the results for the IC50 in assay [3] and in assay [1] were 0.038 µM and 0.063 µM, respectively.
`Cc1cc(Nc2cccc3cccnc23)n2ncnc2n1`: the IC50 in assay [3] is 0.76 µM; in assay [1] it was 0.88 µM.
Taken in the same sequence, the figures for `Cc1ccc2cccc(Nc3ccnc4ccnn34)c2n1` were 1.2 µM and 1.7 µM.
In the case of `Cc1nc2cccc(Nc3cccc4cccnc34)c2o1`, the IC50 in assay [3] is 1.6 µM; in assay [1] it was 1.3 µM.
Taken in the same sequence, the figures for `Cc1cc(Nc2cccc3cccnc23)n2nccc2n1` were 0.0067 µM and < 0.0039 µM.
In assay [3], `O=C1C(O)=C([C@H]2CC[C@H](c3ccc(Cl)cc3)CC2)C(=O)c2ccccc21` [ATOVAQUONE] returned an IC50 of 0.0023 µM.
As for `Cc1nn2c(Nc3cccc4cccnc34)c(C#N)cnc2c1C`, the IC50 in assay [3] was determined as 0.027 µM; in assay [1] it was 0.026 µM.
For `Cc1ccc2cccnc2c1Nc1ccnc2ccnn12` the same measures were > 2 µM and > 2 µM.
For `COc1cc(Nc2ccnc3ccnn23)c2ncccc2c1` the same measures were 0.026 µM and 0.014 µM.
With `N#Cc1cnc2cc(C3CC3)nn2c1Nc1cccc2cccnc12`, the values for the IC50 in assay [3] and in assay [1] were 2 µM and 1.6 µM, respectively.
Take `COc1cc(NC(C)CCCN)c2ncccc2c1` (stereo not given) [PRIMAQUINE]: in assay [2], the IC50 came out at 1.47 µM. That is a single-digit micromolar value.
Consider `c1cc(Nc2ccnc3ccnn23)c2c(c1)OCCO2`, for which the IC50 in assay [3] and in assay [1] was > 2 µM each time.
